In patent publication US20150037351A1, “NOVEL THERAPEUTIC TARGET FOR THE PREVENTION OF TUMOUR METASTASIS” (MAX-PLANCK-GESELLSCHAFT ZUR FORDERUNG DER WISSENSCHAFTEN …, priority 2012, published 2015):

Key:
P2Y2 receptors [1] = target: T1, P2Y2 receptors (Homo sapiens, UniProt P41231); details: natural ligands of the human P2Y2 receptor; cited from earlier work
P2Y2 receptors [2] = target: T1, P2Y2 receptors; details: cited from earlier work
[3] = system: MS1 endothelial cell layer; assay: endothelial barrier permeability assay (FITC-dextran); type: cell-based, mouse
Method: (§1) The permeability assay was performed as described for the transwell assay with some modifications. Briefly, MS1 cells were cultured on transwell filters and the supernatant of platelets alone or platelets stimulated with tumour cells was mixed 1:1 with TB containing 2 mg/ml 70 kDa FITC-DX of which 50 μl were added to the upper compartment in the absence or presence of apyrase (20 U/ml). 250 μl TB were added to the lower compartment. After 90 min, the amount of passed FITC-DX to the lower compartment was measured (FlexStation3, Molecular Devices). For visualization of changes in the endothelial barrier, MS1 cells were stimulated for 1 h with supernatants from tumour cells alone or from tumour cells after stimulation with platelets in the absence or presence of apyrase (20 U/ml). Cells were further processed for staining and imaging

MS1 endothelial cells = assay: morphology of the endothelial monolayer (VE-cadherin/F-actin staining, discontinuous cellular junctions); type: cell-based, mouse
Method: as §1
Cells or tissues were fixed with 4% para-formaldehyde. Tissues were further cryopreserved in 30% sucrose (Sigma), embedded in OCT (Fisher Scientific), and cryosectioned at 16 μm. Cells or sections were stained with rat anti-VE-Cadherin (BD Pharmingen) and Alexa Fluor (AF) 594- (Molecular Probes) or Cy5- (Dianova) conjugated secondary antibodies. DAPI (Sigma) was used to stain cell nuclei, and AF488-conjugated phalloidin (Molecular Probes) to stain F-actin. Images were acquired using a Leica SP5 confocal microscope and analyzed using ImageJ (NIH).

B16 cells = assay: transwell assay: tumour cell transmigration through an endothelial cell layer; type: cell-based, mouse
Method: MS1 cells (8×10^3 at seeding in 50 μl) or HUVEC (6×10^3 at seeding in 50 μl) were cultured for 2 days on 96-transwell plates with polyester membranes of 8-μm pore size (Corning) with medium changes every day. For knockdown experiments, 4×10^5 MS1 cells were transfected using Amaxa Nucleofector Kit V with different sets of siRNA against the P2Y2 receptor (Qiagen) and 1.2×10^4 cells in 50 μl were seeded to the up-per compartment. Where indicated, MS1 cells were pre-incubated with 5-BDBD (1 μM) or MRS2500 (100 nM) for 30 min. Before the experiment, exemplary wells of each condition were visually checked by calcein-AM staining of the endothelial monolayer and only plates with 100% confluency were used. For transmigration, the medium from the upper compartment was removed and 50 μl of a 1:1 mixture of platelets (2×10^8/ml) with calcein-AM-labeled tumour cells (8×10^5/ml) in TB was added to the upper compartment alone or with flurbiprofen (100 nM), ketanserin (3 nM) or apyrase (20 […] (10 μM) and 2MeSADP (10 μM) were added in the absence of platelets. For supernatant experiments, human platelets (5×10^7/ml) or mouse platelets (2×10^8/ml) were incubated for 30 min at 37° C. alone or with tumour cells (1.6×10^6/ml) and centrifuged at 350×g for 10 min. The supernatant was mixed 1:1 with TB (for MS1 cells) or cell culture medium (for HUVECs) containing calcein-AM-labeled tumour cells (8×10^5/ml) and 50 μl were added to the upper compartment. In all experiments, 250 μl TB or culture medium were added to the lower compartment, and tumour cells were allowed to transmigrate over night. On the next day, the non-transmigrated tumour cells from the upper compartment were removed and only the transmigrated tumour cells on the lower side of the filter or the bottom of the transwell were imaged (Zeiss Axio Observer.Z1 and Olympus IX81) and quantified with ImageJ (NIH). Each experiment was performed at least 3 times with a minimum of 5 wells per experiment.

[4] = B16 cells on MS1 endothelial cells with platelets, flurbiprofen 100 nM, ketanserin 3 nM, apyrase 20 U/ml

T1 sequence (P41231 whole entry): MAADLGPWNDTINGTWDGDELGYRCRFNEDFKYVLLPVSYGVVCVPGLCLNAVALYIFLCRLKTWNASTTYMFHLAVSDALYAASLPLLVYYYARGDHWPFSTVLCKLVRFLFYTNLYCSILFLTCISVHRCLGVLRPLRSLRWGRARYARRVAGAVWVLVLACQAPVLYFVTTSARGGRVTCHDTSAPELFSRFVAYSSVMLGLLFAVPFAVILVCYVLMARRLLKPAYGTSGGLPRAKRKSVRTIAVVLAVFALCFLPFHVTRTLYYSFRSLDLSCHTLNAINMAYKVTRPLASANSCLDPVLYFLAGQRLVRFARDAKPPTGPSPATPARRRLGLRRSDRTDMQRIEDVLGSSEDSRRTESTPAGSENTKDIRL

Nc1ncnc2c1ncn2[C@@H]1O[C@H](COP(=O)(O)OP(=O)(O)O)[C@@H](O)[C@H]1O [ADP]
EC50 (P2Y2 receptors [1]): considerably lower potency | agonist efficacy at P2Y2 receptors in comparison to ATP (P2Y2 receptors [2]): less effective agonist

Nc1ncnc2c1ncn2[C@@H]1O[C@H](COP(=O)(O)OP(=O)(O)OP(=O)(O)O)[C@@H](O)[C@H]1O [ATP]
endothelial permeability ([3]; ATP 10 μM, MS1 monolayer, FITC-dextran): increase | tight interendothelial junctions (MS1 endothelial cells; ATP 10 μM, 30 min, MS1 cells): loss

O=c1ccn([C@@H]2O[C@H](COP(=O)(O)OP(=O)(O)OP(=O)(O)O)[C@@H](O)[C@H]2O)c(=O)[nH]1 [UTP]
agonist efficacy at P2Y2 receptors in comparison to ATP (P2Y2 receptors [2]): full agonist

CC(C(=O)O)c1ccc(-c2ccccc2)c(F)c1 (stereo not shown) [flurbiprofen]
platelet-dependent facilitation of tumour cell transmigration (B16 cells; 0.1 µM): no effect

O=C(c1ccc(F)cc1)C1CCN(CCn2c(=O)[nH]c3ccccc3c2=O)CC1 [ketanserin]
platelet-dependent facilitation of tumour cell transmigration (B16 cells; [4]): no effect

apyrase
platelet-dependent facilitation of tumour cell transmigration (B16 cells; [4]): ablated | diffusion of FITC-labeled dextran over an endothelial cell layer enhanced by platelets with tumour cells ([3]; apyrase 20 U/ml, 90 min): blocked | loss of tight interactions of endothelial cells in the monolayer induced by platelets with tumour cells (MS1 endothelial cells; apyrase 20 U/ml, 1 h): blocked
